23 compounds from patent US8431556B2, “C-21-keto lupane derivatives preparation and use thereof” (Vertex Pharmaceuticals Incorporated, priority 2008, dated 2013) can be followed below.

One test has as its system HIV-1 (HIVIIIB). The test can be described thus: HIV-1 replication in MT2 cell line with and without 30% human serum (viral RT activity in supernatant). The class given is cell-based. The following applies: Human immunodeficiency virus 1, MT2, MT-2 cells, with 30% human serum, average IC50 if tested more than once, read-out: MT-2 (HIVIIIB) with 30% HS IC50 range. On the procedure:
HIV-1 Replication in MT2 cell line with and without 30% human serum: The cells are infected at a Multiciplicity of Infection (MOI) of 0.5 for 3 h and then washed twice with complete media to remove residual virus. Cells are then resuspended at 0.5×10^6/ml in complete medium (RPMI, 10% FBS, 1% sodium pyruvate), and seeded into 96-well plates (6.25×10^4/well). The cells are cultured in the presence or absence of various concentrations of test compounds in serial dilutions for 3 days at 37° C. The test compounds are serially diluted in complete medium supplemented or not with 30% human serum. After 3 days, 100 μL of cultured medium with cells are replaced with 120 μL of freshly diluted test compounds in complete medium containing or not 30% Human serum. The level of HIV-1 replication is determined at days 5 after infection by the presence of viral RT activity in harvested supernatant fluid. The IC50 and IC90 values for the virus replication are determined by using GRAPHPAD PRISM software.
The IC50 of the compounds tested in accordance with the HIV replication activity assay MT-2 (HIVIIIB) are represented in Table 4 (without HS) and Table 5 (with 30% HS)
One may read the IC50 as the concentration that gives 50% inhibition. Turning to `CC(C)C1=C2[C@H]3CC[C@@H]4[C@@]5(C)CC[C@H](OC(=O)CC(C)(C)C(=O)O)C(C)(C)[C@@H]5CC[C@@]4(C)[C@]3(C)CC[C@@]2(C(=O)Nc2ccnn2C)CC1=O` [9-54, 3β-O-(3′,3′-Dimethylsuccinyl)-21-oxolup-18-en-28-oic acid N-5-amino-1-methyl-1H-pyrazole acetamide], the 50% inhibitory concentration (IC50) was < 199 nM. The same measure, in the same setting: with `Cc1ccnc(NC(=O)[C@@]23CC[C@]4(C)[C@H](CC[C@@H]5[C@@]6(C)CC[C@H](OC(=O)CC(C)(C)C(=O)O)C(C)(C)[C@@H]6CC[C@]54C)C2=C(C(C)C)C(=O)C3)n1` [9-56, 3β-O-(3′,3′-Dimethylsuccinyl)-21-oxolup-18-en-28-oic acid N-4-methyl-pyrimidin-2-yl-acetamide] the figure was < 199 nM. On the same count and under the same terms, then `CC(=O)N1CCC(NC(=O)[C@@]23CC[C@]4(C)[C@H](CC[C@@H]5[C@@]6(C)CC[C@H](OC(=O)CC(C)(C)C(=O)O)C(C)(C)[C@@H]6CC[C@]54C)C2=C(C(C)C)C(=O)C3)CC1` [9-32, 3β-O-(3′,3′-Dimethylsuccinyl)-21-oxolup-18-en-28-oic acid N-(4-amino-N-1-acetyl-piperidine)-acetamide], with < 199 nM. Regarding `CC(C)C1=C2[C@H]3CC[C@@H]4[C@@]5(C)CC[C@H](OC(=O)CC(C)(C)C(=O)O)C(C)(C)[C@@H]5CC[C@@]4(C)[C@]3(C)CC[C@@]2(C(=O)N2CCNC(=O)C2)CC1=O` [9-37, 3β-O-(3′,3′-Dimethylsuccinyl)-21-oxolup-18-en-28-oic acid N-4-piperazi-2-one acetamide], the half-maximal inhibitory concentration (IC50) is < 199 nM.

As to `CC(C)C1=C2[C@H]3CC[C@@H]4[C@@]5(C)CC[C@H](OC(=O)CC(C)(C)C(=O)O)C(C)(C)[C@@H]5CC[C@@]4(C)[C@]3(C)CC[C@@]2(C(=O)N(C)Cc2ccccc2)CC1=O` [9-11, 3β-O-(3′,3′-Dimethylsuccinyl)-21-oxolup-18-en-28-oic acid N-methyl-N-benzylamide], the IC50 is < 199 nM.

Take `CC(C)C1=C2[C@H]3CC[C@@H]4[C@@]5(C)CC[C@H](OC(=O)CC(C)(C)C(=O)O)C(C)(C)[C@@H]5CC[C@@]4(C)[C@]3(C)CC[C@@]2(C(=O)NCC(F)(F)F)CC1=O` [9-71, 3β-O-(3′,3′-Dimethylsuccinyl)-21-oxolup-18-en-28-oic acid N-(2,2,2-trifluoro-ethyl)-acetamide]: the IC50 was < 199 nM. Still for that read-out and setting: then `CC(C)C1=C2[C@H]3CC[C@@H]4[C@@]5(C)CC[C@H](OC(=O)CC(C)(C)C(=O)O)C(C)(C)[C@@H]5CC[C@@]4(C)[C@]3(C)CC[C@@]2(C(=O)N2CCN(C(=O)OC(C)(C)C)CC2)CC1=O` [9-27, 3β-O-(3′,3′-Dimethylsuccinyl)-21-oxolup-18-en-28-oic acid N-1-acetyl-piperazine-4-carboxylic acid tert-butyl ester], with < 199 nM. On the same count and under the same terms, with `Cc1cccc(NC(=O)[C@@]23CC[C@]4(C)[C@H](CC[C@@H]5[C@@]6(C)CC[C@H](OC(=O)CC(C)(C)C(=O)O)C(C)(C)[C@@H]6CC[C@]54C)C2=C(C(C)C)C(=O)C3)c1` [9-48, 3β-O-(3′,3′-Dimethylsuccinyl)-21-oxolup-18-en-28-oic acid N-3-methyl-phen-1-yl acetamide] the figure was < 199 nM; with `CC(C)C1=C2[C@H]3CC[C@@H]4[C@@]5(C)CC[C@H](OC(=O)CC(C)(C)C(=O)O)C(C)(C)[C@@H]5CC[C@@]4(C)[C@]3(C)CC[C@@]2(C(=O)NCCN2CCCC2)CC1=O` [9-61, 3β-O-(3′,3′-Dimethylsuccinyl)-21-oxolup-18-en-28-oic acid N-(2-pyrrolidin-1-yl-ethyl)-acetamide], < 199 nM.

Turning to `CC(C)C1=C2[C@H]3CC[C@@H]4[C@@]5(C)CC[C@H](OC(=O)CC(C)(C)C(=O)O)C(C)(C)[C@@H]5CC[C@@]4(C)[C@]3(C)CC[C@@]2(C(=O)N2CCC2)CC1=O` [9-70, 3β-O-(3′,3′-Dimethylsuccinyl)-21-oxolup-18-en-28-oic acid N-azetidine-1 acetamide], the half-maximal inhibitory concentration (IC50) is < 199 nM. Same read-out and setting: then `Cc1cc(C)nc(NC(=O)[C@@]23CC[C@]4(C)[C@H](CC[C@@H]5[C@@]6(C)CC[C@H](OC(=O)CC(C)(C)C(=O)O)C(C)(C)[C@@H]6CC[C@]54C)C2=C(C(C)C)C(=O)C3)n1` [9-58, 3β-O-(3′,3′-Dimethylsuccinyl)-21-oxolup-18-en-28-oic acid N-4,6-dimethyl-pyrimidin-2-yl-acetamide], with < 199 nM. `CC(C)C1=C2[C@H]3CC[C@@H]4[C@@]5(C)CC[C@H](OC(=O)CC(C)(C)C(=O)O)C(C)(C)[C@@H]5CC[C@@]4(C)[C@]3(C)CC[C@@]2(C(=O)Nc2ccncn2)CC1=O` [9-64, 3β-O-(3′,3′-Dimethylsuccinyl)-21-oxolup-18-en-28-oic acid N-pyrimidin-4-yl-acetamide]: the IC50 was < 199 nM. The same measure, in the same setting: with `CC(C)NC(=O)NC1CCN(C(=O)[C@@]23CC[C@]4(C)[C@H](CC[C@@H]5[C@@]6(C)CC[C@H](OC(=O)CC(C)(C)C(=O)O)C(C)(C)[C@@H]6CC[C@]54C)C2=C(C(C)C)C(=O)C3)CC1` [9-44, 3β-O-(3′,3′-Dimethylsuccinyl)-21-oxolup-18-en-28-oic acid N-[(4-amino-N′-isopropylureido)-1-piperidine]-acetamide] the figure was < 199 nM; with `CC(C)C1=C2[C@H]3CC[C@@H]4[C@@]5(C)CC[C@H](OC(=O)CC(C)(C)C(=O)O)C(C)(C)[C@@H]5CC[C@@]4(C)[C@]3(C)CC[C@@]2(C(=O)Nc2ccccc2C(F)(F)F)CC1=O` [9-65, 3β-O-(3′,3′-Dimethylsuccinyl)-21-oxolup-18-en-28-oic acid N-2-trifluoromethyl-phen-1-yl acetamide], < 199 nM; with `CC(=O)NCCNC(=O)[C@@]12CC[C@]3(C)[C@H](CC[C@@H]4[C@@]5(C)CC[C@H](OC(=O)CC(C)(C)C(=O)O)C(C)(C)[C@@H]5CC[C@]43C)C1=C(C(C)C)C(=O)C2` [9-22, 3β-O-(3′,3′-Dimethylsuccinyl)-21-oxolup-18-en-28-oic acid N-(2-acetylamino-ethyl)-acetamide], < 199 nM. Same read-out and setting: with `CC(C)C1=C2[C@H]3CC[C@@H]4[C@@]5(C)CC[C@H](OC(=O)CC(C)(C)C(=O)O)C(C)(C)[C@@H]5CC[C@@]4(C)[C@]3(C)CC[C@@]2(C(=O)Nc2nccc(C(F)(F)F)n2)CC1=O` [9-72, 3β-O-(3′,3′-Dimethylsuccinyl)-21-oxolup-18-en-28-oic acid N-4-trifluoro-pyrimidin-2-yl-acetamide] the figure was < 199 nM; with `CC(C)C1=C2[C@H]3CC[C@@H]4[C@@]5(C)CC[C@H](OC(=O)CC(C)(C)C(=O)O)C(C)(C)[C@@H]5CC[C@@]4(C)[C@]3(C)CC[C@@]2(C(=O)NCC2CC2)CC1=O` [9-69, 3β-O-(3′,3′-Dimethylsuccinyl)-21-oxolup-18-en-28-oic acid N-cyclopropylmethyl acetamide], < 199 nM. The same measure, in the same setting: with `CC(C)C1=C2[C@H]3CC[C@@H]4[C@@]5(C)CC[C@H](OC(=O)CC(C)(C)C(=O)O)C(C)(C)[C@@H]5CC[C@@]4(C)[C@]3(C)CC[C@@]2(C(=O)NC(C)c2ccccc2)CC1=O` (stereo partly drawn) [9-33, 3β-O-(3′,3′-Dimethylsuccinyl)-21-oxolup-18-en-28-oic acid N-(1-phenyl-ethyl)-acetamide] the figure was < 199 nM; with `CC(C)C1=C2[C@H]3CC[C@@H]4[C@@]5(C)CC[C@H](OC(=O)CC(C)(C)C(=O)O)C(C)(C)[C@@H]5CC[C@@]4(C)[C@]3(C)CC[C@@]2(C(=O)N2CCC(N(C)C)CC2)CC1=O` [9-74, 3β-O-(3′,3′-Dimethylsuccinyl)-21-oxolup-18-en-28-oic acid N-(4-dimethylamino-piperidin-1-yl)-acetamide], < 199 nM.

The same test, now with this note: Human immunodeficiency virus 1, MT2, MT-2 cells, without HS, average IC50 if tested more than once, read-out: MT-2 (HIVIIIB) IC50 range.
For the compound `CC(C)C1=C2[C@H]3CC[C@@H]4[C@@]5(C)CC[C@H](OC(=O)CC(C)(C)C(=O)O)C(C)(C)[C@@H]5CC[C@@]4(C)[C@]3(C)CC[C@@]2(C(=O)NC2CCCCC2)CC1=O` [9-4, 3β-O-(3′,3′-Dimethylsuccinyl)-21-oxolup-18-en-28-oic acid N-cyclohexylamide], the IC50 is < 199 nM. For `CC(C)C1=C2[C@H]3CC[C@@H]4[C@@]5(C)CC[C@H](OC(=O)CC(C)(C)C(=O)O)C(C)(C)[C@@H]5CC[C@@]4(C)[C@]3(C)CC[C@@]2(C(=O)NCC2CCCCC2)CC1=O` [9-5, 3β-O-(3′,3′-Dimethylsuccinyl)-21-oxolup-18-en-28-oic acid N-cyclohexyl methylamide], the IC50 is < 199 nM.

`COc1ccc(CCNC(=O)[C@@]23CC[C@]4(C)[C@H](CC[C@@H]5[C@@]6(C)CC[C@H](OC(=O)CC(C)(C)C(=O)O)C(C)(C)[C@@H]6CC[C@]54C)C2=C(C(C)C)C(=O)C3)cc1` [9-19, 3β-O-(3′,3′-Dimethylsuccinyl)-21-oxolup-18-en-28-oic acid N-[2-(4-methoxy-phenyl)-ethyl]-acetamide]: the IC50 is < 199 nM. Regarding `CC(C)C1=C2[C@H]3CC[C@@H]4[C@@]5(C)CC[C@H](OC(=O)CC(C)(C)C(=O)O)C(C)(C)[C@@H]5CC[C@@]4(C)[C@]3(C)CC[C@@]2(C(=O)NCc2cccc(Cl)c2)CC1=O` [9-13, 3β-O-(3′,3′-Dimethylsuccinyl)-21-oxolup-18-en-28-oic acid N-3-chloro-benzylamide], the concentration for half-maximal inhibition (IC50) was < 199 nM.
